Measurements taken from patent US20230167467A1, “METHODS AND COMPOSITIONS FOR THE PRODUCTION OF ISOBUTENE” (University of Alaska Anchorage, priority 2020, published 2023).

System: Engineered strains of E. coli
Assay type: cell-based
[1] = after solvent exposure, vs positive control

## CC(C)CO [isobutanol]
  expression of RNAse adapter protein rapZ: downregulation
  expression of accBC (fatty acid biosynthesis): downregulated
  expression of adiA: downregulated
  expression of bssRS (decreasing biofilm material): upregulated
  expression of chaperone genes groLS and dnaJK: increased expression
  expression of gadABCE (acid resistance via GABA production): downregulated
  expression of gatY and marCRAB loci: upregulation
  expression of glpABC (glycerol to glycerone phosphate): increased in expression
  expression of heat shock proteins and chaperones hslJORUV: upregulation
  expression of ibpAB and clpAB (protein protection and repair): increased
  expression of marA: upregulated
[1]
  change in expression of gene adiA: −2.97 ± 0.87
  change in expression of gene adiC: −2.56 ± 1.03
  change in expression of gene adiY: −0.17 ± 0.65
  change in expression of gene bhsA: 4.78 ± 0.60
  change in expression of gene bssR: −1.75 ± 1.29
  change in expression of gene bssS: 4.08 ± 0.84
  change in expression of gene clpA: 2.07 ± 0.63
  change in expression of gene clpB: 4.51 ± 0.69
  change in expression of gene clpP: 0.38 ± 0.59
  change in expression of gene coaA: −3.09 ± 0.90
  change in expression of gene coaD: −1.68 ± 0.97
  change in expression of gene cspA: −4.88 ± 0.58
  change in expression of gene cspB: −5.73 ± 1.38
  change in expression of gene cspC: −3.36 ± 0.94
  change in expression of gene cspD: 1.73 ± 0.58
  change in expression of gene cspE: −1.94 ± 0.64
  change in expression of gene cspF: −3.40 ± 1.07
  change in expression of gene dhaK: 1.05 ± 0.59
  change in expression of gene dhaL: −0.04 ± 0.64
  change in expression of gene dnaJ: 3.71 ± 0.69
  change in expression of gene dnaK: 4.53 ± 0.66
  change in expression of gene fabA: −2.84 ± 0.81
  change in expression of gene fabB: −0.39 ± 0.68
  change in expression of gene fabD: −2.33 ± 0.53
  change in expression of gene flgA: −3.05 ± 1.60
  change in expression of gene flgB: −8.74 ± 1.90
  change in expression of gene flgC: −8.87 ± 2.24
  change in expression of gene flgD: −6.75 ± 2.03
  change in expression of gene flgE: −4.68 ± 1.21
  change in expression of gene flgF: −5.18 ± 1.70
  change in expression of gene flgG: −6.73 ± 1.69
  change in expression of gene flgH: −4.17 ± 1.80
  change in expression of gene gabD: −2.21 ± 1.41
  change in expression of gene gabP: −1.47 ± 1.32
  change in expression of gene gabT: −1.57 ± 1.34
  change in expression of gene gadA: −0.71 ± 0.69
  change in expression of gene gadB: 0.96 ± 0.79
  change in expression of gene gadC: 1.56 ± 0.80
  change in expression of gene gadE: −0.46 ± 0.60
  change in expression of gene gadW: −4.10 ± 0.99
  change in expression of gene gadX: −2.01 ± 0.57
  change in expression of gene gadY: −3.37 ± 0.80
  change in expression of gene glpA: 5.44 ± 0.87
  change in expression of gene glpB: 2.96 ± 0.64
  change in expression of gene glpC: 2.92 ± 0.81
  change in expression of gene groL: 4.05 ± 0.57
  change in expression of gene groS: 4.43 ± 0.50
  change in expression of gene hchA: 3.17 ± 0.60
  change in expression of gene hslJ: 1.12 ± 0.66
  change in expression of gene hslO: 1.72 ± 0.65
  change in expression of gene hslR: 2.12 ± 0.65
  change in expression of gene hslU: 1.52 ± 0.56
  change in expression of gene hslV: 0.88 ± 0.62
  change in expression of gene ibpA: 5.74 ± 1.21
  change in expression of gene ibpB: 6.79 ± 1.50
  change in expression of gene lipA: 0.31 ± 0.60
  change in expression of gene lipB: −2.33 ± 0.69
  change in expression of gene narG: 2.47 ± 0.65
  change in expression of gene narH: 1.99 ± 0.62
  change in expression of gene narI: 0.99 ± 0.94
  change in expression of gene narJ: 1.39 ± 0.69
  change in expression of gene narK: −0.93 ± 0.90
  change in expression of gene potA: −5.42 ± 0.87
  change in expression of gene potB: −2.50 ± 1.32
  change in expression of gene potC: −2.97 ± 1.28
  change in expression of gene pspA: 5.48 ± 0.55
  change in expression of gene pspB: 3.26 ± 0.68
  change in expression of gene rpoA: −0.58 ± 0.44
  change in expression of gene rpoB: −0.72 ± 0.40
  change in expression of gene rpoC: −1.03 ± 0.39
  change in expression of gene rpoD: 1.30 ± 0.70
  change in expression of gene rpoE: −1.10 ± 0.62
  change in expression of gene rpoH: 1.72 ± 0.52
  change in expression of gene rpoN: −1.50 ± 0.49
  change in expression of gene rpoS: 1.73 ± 0.47
  change in expression of gene rpoZ: −0.91 ± 0.54
  change in expression of gene spy: 8.88 ± 0.87
  change in expression of gene tatA: −2.04 ± 0.52
  change in expression of gene tatB: −2.87 ± 0.60
  change in expression of gene tatC: −4.38 ± 1.21
  change in expression of gene tatD: −4.11 ± 1.20
  change in expression of gene tatE: 0.70 ± 0.64
Vs control, Bon Ferroni corrected p-value<0.05
  number of genes with significant changes in expression: 831 genes
